{"source": "patent US20150265644A1", "about": "“THERAPEUTIC METHODS AND COMPOSITIONS FOR TREATING DIABETES UTILIZING DITERPENOID COMPOUNDS” (Orient Europharma Co., Ltd., priority 2014, published 2015)", "key": {"liver": {"tested_on": "liver", "experiment": "Glycogen content in liver in vivo", "set-up": "species or system mice", "details": "10 mgkg^−1 i.p., 60 minutes", "experimental": "The mice were injected with borapetoside A (10 mgkg^−1, interperitoneal) for 60 minutes or insulin (0.5 IUkg^−1, interperitoneal) for 30 minutes. After the treatment, the anesthetic mice were sacrificed by cervical dislocation to collect the soleus muscle and liver. About 40 mg of each sample was dissolved in 1 mol/L KOH at 75° C. for 30 min. The dissolved homogenate was neutralized by glacial acetic acid and then incubated overnight in acetate buffer (0.3 mol/L sodium acetate, pH 4.8) containing amyloglucosidase (Sigma, St. Louis, Mo.). The mixture was then neutralized with 1 mol/L NaOH to stop the reaction. The glycogen contents in the tissue samples were determined as μg of glucose per mg of tissue (wet weight)."}, "PEPCK": {"tested_on": "PEPCK", "experiment": "Western blot of liver, PEPCK expression", "assay_type": "in vivo", "details": "mice with type 1 DM, 10 mgkg^−1 i.p. twice a day for 7 days", "experimental": "(§1) After three days of acclimatization, the mice had free access to a standard rodent chow (normal mice), a standard rodent chow after single 250 mgkg^−1 streptozotocin (STZ) intraperitoneal injection (TIDM mice), and a fat-rich chow diet and fructose-sweetened water (T2DM mice) for 4 weeks. The induction of Type 1 DM was assessed and confirmed when the mice had plasma glucose levels ≧350 mgdL^−1, accompanied with polyuria, hyperphagia and decreased body weight. The induction Type 2 DM in the mice was assessed by measuring fasting plasma glucose levels and confirmed when plasma glucose level was ≧150 mgdL^−1 after the 4-week induction. […]\n(§2) Western blot analysis was carried out by known methods with a slight modification. […] After centrifuging the homogenates at 10,000 g for 30 minutes, the protein concentrations were determined by using a BCA Protein Assay Kit (Pierce Biotechnology, Rockford, Ill.). […] The membranes were analysed by using the antibodies against phospho-insulin receptor β (IRβ) (Tyr^1345), phospho-Akt (Ser^473), phosphor-AS160 (Thr^642), AS160 (Cell Signaling Technology, Beverly, Mass.), IRβ, Akt, β-Actin (Santa Cruz Biotechnology, Santa Cruz, Calif.), GLUT2 (Abcam, Cambridge, UK), and PEPCK (a gift from Professor D K Granner), respectively. […] The intensity of each band was quantified with ImageQuant."}, "phospho-Akt (Ser^473)": {"tested_on": "phospho-Akt (Ser^473)", "experiment": "Western blot of liver, phospho-Akt", "assay_type": "in vivo", "details": "mice with type 1 DM, 10 mgkg^−1 i.p. twice a day for 7 days", "experimental": "as §1, §2"}, "[1]": {"tested_on": "phospho-insulin receptor β (IRβ) (Tyr^1345)", "experiment": "Western blot of liver, phospho-insulin receptor", "assay_type": "in vivo", "details": "mice with type 1 DM, 10 mgkg^−1 i.p. twice a day for 7 days", "experimental": "as §1, §2"}, "[2]": {"experiment": "Intraperitoneal glucose tolerance test", "assay_type": "in vivo, mice", "experimental": "(§3) After three days of acclimatization, the mice had free access to a standard rodent chow (normal mice), a standard rodent chow after single 250 mgkg^−1 streptozotocin (STZ) intraperitoneal injection (TIDM mice), and a fat-rich chow diet and fructose-sweetened water (T2DM mice) for 4 weeks. The induction of Type 1 DM was assessed and confirmed when the mice had plasma glucose levels ≧350 mgdL^−1, accompanied with polyuria, hyperphagia and decreased body weight. The induction Type 2 DM in the mice was assessed by measuring fasting plasma glucose levels and confirmed when plasma glucose level was ≧150 mgdL^−1 after the 4-week induction. The animals were assigned randomly into three groups, with seven animals in each group. In group I, the mice were treated with vehicle, 2% DMSO in normal saline, as the negative control. In group II, the mice were intraperitoneally treated with borapetoside A (0.1-10 mgkg^−1). In […], the mice received intraperitoneally metformin (300 mgkg^−1; Sigma Chemical Co., St. Louis, Mo., U.S.A.) or insulin (0.5 IUkg^−1; Insulin Actrapid® HM; Novo Nordisk, Denmark). In the acute study, mice under anesthesia received a single intraperitoneal administration of borapetoside A, negative control, or positive control. In the subacute study, mice received intraperitoneal administrations of borapetoside A, vehicle, or insulin twice a day for seven days.\n(§4) Blood samples were collected from the orbital vascular plexus of the mice under anesthesia. Blood samples were then centrifuged at 13000 rpm for 5 min, and the plasma samples were collected and kept on ice prior to the assay. The plasma glucose concentration was measured by Glucose Kit Reagent (Biosystems S.A., Barcelona, Spain) following the manufacturer's instructions, and the insulin levels were estimated using mouse insulin ELISA kit (Mercodia AB, Uppsala, Sweden).\nThe mice were maintained under anesthesia throughout the procedure. Glucose (2.0 gkg^−1) was administered intraperitoneally. Blood samples were collected from the orbital vascular plexus at 0, 30, 60, 120 min. The concentrations of the plasma glucose were measured, and the values of AUC were calculated accordingly."}, "[3]": {"experiment": "Plasma insulin level before and after treatment in mice", "assay_type": "in vivo", "experimental": "The 4-week-old male ICR mice were purchased from the Animal Center of the College of Medicine, National Taiwan University (Taipei, Taiwan) with delicate humane care. This animal study was conducted by following the University ethical guidelines and the ‘Guide for the Care and Use of Laboratory Animals’ published by the US National Institutes of Health (NIH publication no. 85-23, revised 1996). The animal experiments were approved by the Institutional Animal Care and Use Committee (IACUC) of the National Taiwan University (IACUC No. 20110073). Animals were housed in a room at the constant temperature, 22±1° C., with 12 hours light and dark cycles.\nas §3, §4"}}, "data": [{"molecule": "C[C@@]12C[C@@H](c3ccoc3)OC(=O)[C@@H]1C[C@@H]1OC(=O)[C@@]3(O)[C@@H](O[C@@H]4O[C@H](CO)[C@@H](O)[C@H](O)[C@H]4O)CC[C@@H]2[C@@]13C", "note": "[borapetoside A]", "values": [{"measurement": "glycogen content in liver, % of vehicle control", "setting": "liver; mice with type 1 DM", "value": "196.9±15.6", "unit": "%"}, {"measurement": "glycogen content in liver, % of vehicle control", "setting": "liver; mice with type 2 DM", "value": "146.1±12.0", "unit": "%"}, {"measurement": "glycogen content in liver, % of vehicle control", "setting": "liver; normal mice", "value": "257.8±15.8", "unit": "%"}, {"measurement": "PEPCK expression in liver", "setting": "PEPCK", "value": "significant decrease"}, {"measurement": "phosphorylated Akt in liver", "setting": "phospho-Akt (Ser^473)", "value": "increased"}, {"measurement": "phosphorylated IR in liver", "setting": "[1]", "value": "increased"}, {"measurement": "increase of plasma glucose level at 30 min", "setting": "[2]; 0.1, 1, and 10 mgkg^−1, compared to the vehicle group, normal and type 2 DM mice", "value": "significantly suppressed"}, {"measurement": "area under the curve (AUC) of plasma glucose, % of vehicle control", "setting": "[2]; normal mice, 0.1 mgkg^−1", "value": "78.8±3.0", "unit": "%"}, {"measurement": "area under the curve (AUC) of plasma glucose, % of vehicle control", "setting": "[2]; normal mice, 1 mgkg^−1", "value": "69.9±7.1", "unit": "%"}, {"measurement": "area under the curve (AUC) of plasma glucose, % of vehicle control", "setting": "[2]; normal mice, 10 mgkg^−1", "value": "68.91±3.5", "unit": "%"}, {"measurement": "area under the curve (AUC) of plasma glucose, % of vehicle control", "setting": "[2]; type 2 DM bearing mice, 0.1 mgkg^−1", "value": "74.9±4.5", "unit": "%"}, {"measurement": "area under the curve (AUC) of plasma glucose, % of vehicle control", "setting": "[2]; type 2 DM bearing mice, 1 mgkg^−1", "value": "71.1±3.2", "unit": "%"}, {"measurement": "area under the curve (AUC) of plasma glucose, % of vehicle control", "setting": "[2]; type 2 DM bearing mice, 10 mgkg^−1", "value": "68.9±1.9", "unit": "%"}, {"measurement": "Plasma insulin", "setting": "[3]; T1DM mice, 0.1 mg kg^−1, after-treatment", "value": "22.7 ± 0.2", "unit": "pmol/L"}, {"measurement": "Plasma insulin", "setting": "[3]; T1DM mice, 0.1 mg kg^−1, before-treatment", "value": "22.9 ± 0.1", "unit": "pmol/L"}, {"measurement": "Plasma insulin", "setting": "[3]; T1DM mice, 0.3 mg kg^−1, after-treatment", "value": "22.7 ± 0.3", "unit": "pmol/L"}, {"measurement": "Plasma insulin", "setting": "[3]; T1DM mice, 0.3 mg kg^−1, before-treatment", "value": "22.9 ± 0.1", "unit": "pmol/L"}, {"measurement": "Plasma insulin", "setting": "[3]; T1DM mice, 1 mg kg^−1, after-treatment", "value": "23.0 ± 0.2", "unit": "pmol/L"}, {"measurement": "Plasma insulin", "setting": "[3]; T1DM mice, 1 mg kg^−1, before-treatment", "value": "23.1 ± 0.2", "unit": "pmol/L"}, {"measurement": "Plasma insulin", "setting": "[3]; T1DM mice, 3 mg kg^−1, after-treatment", "value": "23.0 ± 0.0", "unit": "pmol/L"}, {"measurement": "Plasma insulin", "setting": "[3]; T1DM mice, 3 mg kg^−1, before-treatment", "value": "23.1 ± 0.2", "unit": "pmol/L"}, {"measurement": "Plasma insulin", "setting": "[3]; T1DM mice, 10 mg kg^−1, after-treatment", "value": "23.0 ± 0.1", "unit": "pmol/L"}, {"measurement": "Plasma insulin", "setting": "[3]; T1DM mice, 10 mg kg^−1, before-treatment", "value": "23.1 ± 0.1", "unit": "pmol/L"}, {"measurement": "Plasma insulin", "setting": "[3]; T2DM mice, 0.1 mg kg^−1, after-treatment", "value": "134.5 ± 9.3", "unit": "pmol/L"}, {"measurement": "Plasma insulin", "setting": "[3]; T2DM mice, 0.1 mg kg^−1, before-treatment", "value": "140.5 ± 4.1", "unit": "pmol/L"}, {"measurement": "Plasma insulin", "setting": "[3]; T2DM mice, 0.3 mg kg^−1, after-treatment", "value": "149.0 ± 9.5", "unit": "pmol/L"}, {"measurement": "Plasma insulin", "setting": "[3]; T2DM mice, 0.3 mg kg^−1, before-treatment", "value": "133.0 ± 4.2", "unit": "pmol/L"}, {"measurement": "Plasma insulin", "setting": "[3]; T2DM mice, 1 mg kg^−1, after-treatment", "value": "123.7 ± 9.6", "unit": "pmol/L"}, {"measurement": "Plasma insulin", "setting": "[3]; T2DM mice, 1 mg kg^−1, before-treatment", "value": "126.8 ± 5.7", "unit": "pmol/L"}, {"measurement": "Plasma insulin", "setting": "[3]; T2DM mice, 3 mg kg^−1, after-treatment", "value": "184.3 ± 14.6", "unit": "pmol/L"}, {"measurement": "Plasma insulin", "setting": "[3]; T2DM mice, 3 mg kg^−1, before-treatment", "value": "138.3 ± 3.6", "unit": "pmol/L"}, {"measurement": "Plasma insulin", "setting": "[3]; T2DM mice, 10 mg kg^−1, after-treatment", "value": "205.3 ± 22.2", "unit": "pmol/L"}, {"measurement": "Plasma insulin", "setting": "[3]; T2DM mice, 10 mg kg^−1, before-treatment", "value": "134.9 ± 3.5", "unit": "pmol/L"}, {"measurement": "Plasma insulin", "setting": "[3]; normal mice, 0.1 mg kg^−1, after-treatment", "value": "68.3 ± 4.4", "unit": "pmol/L"}, {"measurement": "Plasma insulin", "setting": "[3]; normal mice, 0.1 mg kg^−1, before-treatment", "value": "61.0 ± 4.6", "unit": "pmol/L"}, {"measurement": "Plasma insulin", "setting": "[3]; normal mice, 0.3 mg kg^−1, after-treatment", "value": "129.4 ± 22.0", "unit": "pmol/L"}, {"measurement": "Plasma insulin", "setting": "[3]; normal mice, 0.3 mg kg^−1, before-treatment", "value": "63.4 ± 3.9", "unit": "pmol/L"}, {"measurement": "Plasma insulin", "setting": "[3]; normal mice, 1 mg kg^−1, after-treatment", "value": "118.8 ± 10.1", "unit": "pmol/L"}, {"measurement": "Plasma insulin", "setting": "[3]; normal mice, 1 mg kg^−1, before-treatment", "value": "66.1 ± 5.4", "unit": "pmol/L"}, {"measurement": "Plasma insulin", "setting": "[3]; normal mice, 3 mg kg^−1, after-treatment", "value": "121.2 ± 14.2", "unit": "pmol/L"}, {"measurement": "Plasma insulin", "setting": "[3]; normal mice, 3 mg kg^−1, before-treatment", "value": "64.4 ± 3.6", "unit": "pmol/L"}, {"measurement": "Plasma insulin", "setting": "[3]; normal mice, 10 mg kg^−1, after-treatment", "value": "108.2 ± 2.9", "unit": "pmol/L"}, {"measurement": "Plasma insulin", "setting": "[3]; normal mice, 10 mg kg^−1, before-treatment", "value": "68.9 ± 1.3", "unit": "pmol/L"}]}]}
